Data set [1] in a line: Pharmacokinetics of Compound 1 solid forms in plasma following single PO administration (IV bolus reference) in male Sprague Dawley rats. Format: in vivo. Particulars: for AUC(0-inf) / bioavailability: male, rat; for AUC(0-inf) / bioavailability / AUCinf: plasma; for bioavailability: read-out: Absolute % F; for AUCinf: oral gavage 10 mg/kg (as free Compound 1); for AUCinf / Absolute % F: 10 mg/kg; for Absolute % F: oral gavage 10 mg/kg. The method, then: Study Design. Twelve (12) male Sprague Dawley rats (purchased from SLAC Laboratory Animal Co. LTD were randomized into four groups (3 animals per group). The animals were fasted overnight, the forms of Compound 1 shown in Table 24 were administered by oral gavage, and the animals were fed 4 hours post-dose. Each form of Compound 1 was administered as a suspension in water containing 0.5% microcrystalline cellulose and 0.1% Tween 80. The Dose Levels and Dose Concentrations shown in Table 24 are based on the corresponding amount of free Compound 1.
Blood Collection. Blood was serially collected from each animal 0.083 hr, 0.25 hr, 0.5 hr, 1 hr, 2 hr, 4 hr, 8 hr, 24 hr, 48 hr, and 72 hrs post-dose. For each collection, the animal was restrained manually, and approximately 150 μL of blood sample was collected via the tail vein into K2EDTA tubes. The blood samples were put on ice and centrifuged at 2000 g for 5 min to obtain plasma. Plasma samples were stored at approximately −70° C. until analysis.
To enable the calculation of oral bioavailability, Compound 1 was dissolved in a vehicle containing 10% N-Methyl-2-pyrrolidone (NMP), 10% Solutol HS 15, and 80% saline and administered at 1 mg/kg as intravenous (IV) bolus dose to a separate group of male Sprague-Dawley rats, and blood samples were collected at similar time points to those shown above. Further, plasma samples were obtained from the collected blood samples and stored at approximately −70° C. until analysis.
Further, the amorphous solid dispersion of Compound 1, as described in Example 23, was suspended in an aqueous vehicle containing 0.5% methyl cellulose (MC) and 0.2% Tween80 at 0.2 mg/mL concentration and dosed at 1 mg/kg as a single oral dose to a separate group of male Sprague-Dawley rats after an overnight fasting. Blood samples were collected at similar time points to those shown above. Further, plasma was harvested and stored at approximately −70° C. until analysis.
Sample Preparation and Analysis. The concentration of Compound 1 in the plasma samples was determined by LC-MS/MS analysis.
A 20 μL aliquot of each sample was diluted with 200 μL of acetonitrile containing dexamethasone as an internal standard (40 ng/mL). The resulting mixture was vortexed for 2 min and centrifuged at 5800 rpm for 10 min. A 2 μL sample was injected into LC-MS/MS.
Results. Historical data for IV administration of Compound 1 and administration of Compound 1 as a spray dried dispersion are also provided in Table 26. The absolute bioavailability of each form of Compound 1 was determined by dividing the AUCinf of the form in question by the AUCinf obtained by IV administration of Compound 1 and correcting for differences in dose. The measured absolute bioavailability of the citrate and maleate cocrystals, as reported in Table 26, was higher than the measured bioavailability of the other forms of Compound 1.

The nature of data set [2]: Hygroscopicity by Dynamic Vapor Sorption (DVS) analysis. Format: physicochemical. The conditions noted are these: for water uptake at 80% relative humidity / hygroscopicity: DVS at 25° C.; for water uptake at 80% relative humidity: range 0-95% relative humidity; for form change after DVS analysis (XRPD of the remaining material): XRPD after DVS at 25° C., 0-95% relative humidity. How it is done:
Dynamic Vapor Sorption (DVS) Analysis. DVS was measured via a SMS (Surface Measurement Systems) DVS Intrinsic. The relative humidity at 25° C. were calibrated against deliquescence point of LiCl, Mg(NO3)2 and KCl. [table] The hygroscopicity of the cocrystal was determined by DVS analysis at 25° C., over a range of 0-95% relative humidity. […]

A further data set concerns mutant IDH1. The conditions noted are these: biochemical and cellular assays; cited from earlier work.
The subject of another data set is mutant IDH2. The conditions noted are these: biochemical and cellular assays; cited from earlier work.
Where [3] appears, read: listed as Citric Acid Cocrystal Type A.
Where [4] appears, read: male Sprague Dawley rats, fasted.
Where [5] appears, read: male Sprague Dawley rats, vs IV AUCinf, dose-corrected.
Where [6] appears, read: listed as Maleic Acid Cocrystal Type A.

Read-outs that look alike come from different tables or passages of the source.

As a reminder, the AUC(0-inf) is the area under the concentration-time curve extrapolated to infinity. Low readings indicate less exposure, high ones more exposure. For the compound `C[C@@H](Nc1nc(N[C@H](C)C(F)(F)F)nc(-c2cccc(Cl)n2)n1)C(F)(F)F` [Citrate Cocrystal Type A], the AUC(0-inf) in data set [1] (Sprague Dawley, po, 11.7 mg/kg, oral gavage 11.7 mg/kg (as free Compound 1), male Sprague Dawley rats, fasted) was determined as 58200 ng·h/mL. In data set [1] (Sprague Dawley, po, 11.7 mg/kg, oral gavage 11.7 mg/kg, male Sprague Dawley rats, vs IV AUCinf, dose-corrected), the bioavailability is 104%. Further, the “bioavailability (in words)” value in data set [1] (summary statement referring to the Examples) is given as “favorable bioavailability”. In data set [2] (setting [3]), the “water uptake at 80% relative humidity” value is given as 0.5% and the hygroscopicity result is given as “slightly hygroscopic”. Moreover, the hygroscopicity entry in data set [2] (listed as citric acid cocrystal type A) is reported as “low hygroscopicity”. Also, the “form change after DVS analysis (XRPD of the remaining material)” value in data set [2] is given as “no form change had occurred”.

Consider `C[C@@H](Nc1nc(N[C@H](C)C(F)(F)F)nc(-c2cccc(Cl)n2)n1)C(F)(F)F` [Compound 1, 6-(6-chloropyridin-2-yl)-N^2,N^4-bis((R)-1,1,1-trifluoropropan-2-yl)-1,3,5-triazine-2,4-diamine], for which the “inhibitor of mutant IDH1 protein” value in the data set on mutant IDH1 was “inhibitor”. The “inhibitor of mutant IDH2 protein” value in the data set on mutant IDH2 was “inhibitor”. The AUC(0-inf) in data set [1] (Sprague-Dawley, iv, 1 mg/kg, IV bolus 1 mg/kg, male Sprague-Dawley rats, historical data) is 4800 ng·h/mL. In data set [1] (Sprague-Dawley, iv, 1 mg/kg, IV bolus 1 mg/kg, male Sprague-Dawley rats, historical data (reference)), the bioavailability turned out to be 100%.

Take `C[C@@H](Nc1nc(N[C@H](C)C(F)(F)F)nc(-c2cccc(Cl)n2)n1)C(F)(F)F` [Free Form A]: the AUCinf in data set [1] (setting [4]) was determined as 30698 ng·h/mL. In addition, the “Absolute % F” value in data set [1] (setting [5]) worked out at 63.9%.

Compound `C[C@@H](Nc1nc(N[C@H](C)C(F)(F)F)nc(-c2cccc(Cl)n2)n1)C(F)(F)F` [Free Form C] had an AUCinf in data set [1] (setting [4]) of 10846 ng·h/mL. In addition, the “Absolute % F” value in data set [1] (setting [5]) amounted to 22.6%.

`C[C@@H](Nc1nc(N[C@H](C)C(F)(F)F)nc(-c2cccc(Cl)n2)n1)C(F)(F)F` [Maleate Cocrystal Type A] came in with an AUCinf in data set [1] (setting [4]) of 38625 ng·h/mL. Also, in data set [1] (setting [5]), the “Absolute % F” value was determined as 80.4%. Besides, in data set [2] (setting [6]), the “water uptake at 80% relative humidity” value is 2.0% and the hygroscopicity entry is recorded as “slightly hygroscopic”. Further, the “form change after DVS analysis (XRPD of the remaining material)” value in data set [2] is on record as “no form change had occurred”.

(Values after patent publication US12679820B2, “Cocrystals, pharmaceutical compositions thereof, and methods of treatment involving same” (Servier Pharmaceuticals LLC, priority 2017, dated 2026).)
